Experimental data taken from patent publication US12055549B2, “Methods of use of anti-TNFα antibodies” (UCB Biopharma SRL, priority 2015, dated 2024).

Molecular target: TNFα (Homo sapiens, UniProt P01375)
Assay: SPR on Biacore 4000, immobilised soluble TNFα
Format: binding
Conditions: concentration of up to 100 μM
Procedure: In another experiment, BIO8898 was tested against the immobilised soluble form of CD40L and the soluble form of TNFα by SPR on a Biacore 4000 machine.

Sequence of TNFα (P01375 77-233 limits assumed): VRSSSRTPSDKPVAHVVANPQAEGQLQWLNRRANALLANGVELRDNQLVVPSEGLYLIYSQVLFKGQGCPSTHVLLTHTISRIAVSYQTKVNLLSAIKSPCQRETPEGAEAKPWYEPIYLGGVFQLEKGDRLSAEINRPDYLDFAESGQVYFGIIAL

binding to TNFα: found not to bind to TNFα
SMILES: O=C(NCc1cccc(-c2ccccc2)c1)c1cc(-c2cc(C(=O)NC(C(=O)O)C3CCCCC3)nc(C(=O)N3CCCC3CN3CCCC3)c2)cc(C(=O)N2CCCC2CN2CCCC2)n1 (stereo not shown) [BIO8898]
